Reference: PubChem BioAssay AID624124 (The Scripps Research Institute Molecular Screening Center, 2012)
pIC50: −log10 of the molar value.

Biological target: Tyrosine-protein kinase ABL1 (Homo sapiens) + Ras and Rab interactor 1 (Homo sapiens) (UniProt P00519+Q13671)
Test: Rin1/ABL1 binding disruption, potency – biochemical, TR-FRET, round 1, late-stage follow-up (AID 624124)
Conditions: TR-FRET Rin1-Abl binding assay

Tyrosine-protein kinase ABL1 (Homo sapiens) + Ras and Rab interactor 1 (Homo sapiens), sequence (P00519 whole entry, looked up): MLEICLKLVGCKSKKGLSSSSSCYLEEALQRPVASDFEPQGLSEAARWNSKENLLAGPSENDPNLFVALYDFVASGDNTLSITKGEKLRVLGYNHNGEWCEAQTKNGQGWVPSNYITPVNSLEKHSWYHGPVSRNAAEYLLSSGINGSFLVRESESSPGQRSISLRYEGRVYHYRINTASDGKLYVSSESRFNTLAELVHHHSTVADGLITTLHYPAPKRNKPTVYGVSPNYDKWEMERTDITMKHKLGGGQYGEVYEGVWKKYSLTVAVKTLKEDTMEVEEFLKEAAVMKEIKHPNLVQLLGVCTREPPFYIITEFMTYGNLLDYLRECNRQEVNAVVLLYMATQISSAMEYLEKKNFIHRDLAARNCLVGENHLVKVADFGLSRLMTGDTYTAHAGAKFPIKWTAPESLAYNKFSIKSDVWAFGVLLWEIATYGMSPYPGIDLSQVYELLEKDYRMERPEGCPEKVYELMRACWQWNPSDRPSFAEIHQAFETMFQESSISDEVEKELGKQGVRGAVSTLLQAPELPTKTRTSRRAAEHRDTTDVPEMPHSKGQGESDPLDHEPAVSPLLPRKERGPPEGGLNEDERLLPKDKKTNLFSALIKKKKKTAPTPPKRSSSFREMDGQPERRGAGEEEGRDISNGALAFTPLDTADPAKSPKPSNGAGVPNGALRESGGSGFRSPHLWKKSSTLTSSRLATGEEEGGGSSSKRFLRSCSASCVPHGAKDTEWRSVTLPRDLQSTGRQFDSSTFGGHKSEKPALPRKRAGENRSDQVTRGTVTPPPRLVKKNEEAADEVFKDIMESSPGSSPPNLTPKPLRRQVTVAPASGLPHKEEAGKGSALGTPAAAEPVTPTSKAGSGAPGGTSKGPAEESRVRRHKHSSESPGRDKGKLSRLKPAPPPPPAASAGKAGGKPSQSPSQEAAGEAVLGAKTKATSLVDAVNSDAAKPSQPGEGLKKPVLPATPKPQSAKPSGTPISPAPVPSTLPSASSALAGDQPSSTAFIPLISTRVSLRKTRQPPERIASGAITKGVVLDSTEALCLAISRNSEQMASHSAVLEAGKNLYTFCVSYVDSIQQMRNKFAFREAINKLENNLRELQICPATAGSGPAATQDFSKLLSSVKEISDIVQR
Tyrosine-protein kinase ABL1 (Homo sapiens) + Ras and Rab interactor 1 (Homo sapiens), sequence (Q13671 whole entry, looked up): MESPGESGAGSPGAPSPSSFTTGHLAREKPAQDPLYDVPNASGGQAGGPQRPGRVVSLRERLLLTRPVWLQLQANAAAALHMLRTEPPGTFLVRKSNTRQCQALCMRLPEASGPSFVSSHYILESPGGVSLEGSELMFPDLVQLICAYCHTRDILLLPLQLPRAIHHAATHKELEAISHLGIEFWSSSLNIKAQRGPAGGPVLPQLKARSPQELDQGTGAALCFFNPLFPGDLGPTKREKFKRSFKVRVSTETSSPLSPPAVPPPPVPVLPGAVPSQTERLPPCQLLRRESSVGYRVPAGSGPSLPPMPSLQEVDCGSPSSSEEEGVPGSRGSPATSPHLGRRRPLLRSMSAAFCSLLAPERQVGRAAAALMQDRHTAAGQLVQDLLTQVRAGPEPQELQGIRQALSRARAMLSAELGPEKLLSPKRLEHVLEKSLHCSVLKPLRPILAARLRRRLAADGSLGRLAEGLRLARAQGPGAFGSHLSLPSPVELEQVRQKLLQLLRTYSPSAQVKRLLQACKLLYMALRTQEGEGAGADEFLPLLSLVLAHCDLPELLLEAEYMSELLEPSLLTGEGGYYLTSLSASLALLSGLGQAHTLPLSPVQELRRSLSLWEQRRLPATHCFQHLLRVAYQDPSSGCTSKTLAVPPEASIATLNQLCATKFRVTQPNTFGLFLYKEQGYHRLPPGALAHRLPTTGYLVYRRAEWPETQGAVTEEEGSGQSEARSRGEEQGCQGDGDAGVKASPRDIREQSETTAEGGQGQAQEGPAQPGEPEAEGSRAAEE

Structure (SMILES) | pIC50
CN(C(=O)c1ccc(NC(=O)Cc2ccc(NC(=O)C3CCN(C(=O)c4ccccc4)CC3)cc2)cc1)C1CC1 | 6.21
COc1ccc(C(=O)N2CCC(C(=O)Nc3ccc(CC(=O)Nc4ccc(C(=O)N(C)C5CC5)cc4)cc3)CC2)cc1 | 5.43
CN(C(=O)c1ccc(NC(=O)Cc2ccc(NC(=O)C3CCN(C(=O)c4cccc(F)c4)CC3)cc2)cc1)C1CC1 | 5.87
CN(C(=O)c1ccc(NC(=O)Cc2ccc(NC(=O)C3CCN(C(=O)c4ccc(F)cc4)CC3)cc2)cc1)C1CC1 | 5.97
